Measured values: patent publication US7271165B2, “Rifamycin analogs and uses thereof” (priority 2003, dated 2007)
≈ marks a conversion by molar mass, not a printed value.

Assays:
S. pneumo. = assay: MIC assay, S. pneumo.; format: cell-based, Streptococcus pneumoniae
E. faecalis = assay: MIC assay, E. faecalis; format: cell-based, Enterococcus faecalis
H. flu = format: cell-based, H. influenza; conditions: H. flu
S. aureus = assay: MIC assay, S. aureus; format: cell-based, Staphylococcus aureus
E coli = assay: MIC assay, E coli; format: cell-based

SMILES | MIC (μg/mL) S. pneumo. (S. pneumo.) | MIC (μg/mL) E. faecalis (E. faecalis) | MIC (μg/mL) H. flu (H. flu) | MIC (μg/mL) S. aureus (S. aureus) | MIC (μg/mL) E coli (E coli)
COC1C=COC2(C)Oc3c(C)c(O)c4c(=O)c(c5sc6cc(N7CC(C)N(CC8CC8)CC7C)ccc6nc-5c4c3C2=O)NC(=O)C(C)=CC=CC(C)C(O)C(C)C(O)C(C)C(OC(C)=O)C1C [Compound 68, 5′-[(2S,5R)-4-(cyclopropylmethyl)-2,5-dimethylpiperazinyl]benzthiazinorifamycin] | 0.0005 µg/mL (≈ 0.000517 µM) | 2 µg/mL (≈ 2.07 µM) | 0.5 µg/mL (≈ 0.517 µM) | 0.06 µg/mL (≈ 0.062 µM) | >8 µg/mL
COC1C=COC2(C)Oc3c(C)c(O)c4c(=O)c(c5sc6cc(N7CCC(N(C)C)CC7)ccc6nc-5c4c3C2=O)NC(=O)C(C)=CC=CC(C)C(O)C(C)C(O)C(C)C(OC(C)=O)C1C (centres unmarked) [Compound 69, 5′-[4-N,N-dimethylamino-1-piperidinyl]benzthiazinorifamycin] | 0.00025 µg/mL (≈ 0.00027 µM) | 0.5 µg/mL (≈ 0.539 µM) | 0.5 µg/mL (≈ 0.539 µM) | 0.015 µg/mL (≈ 0.0162 µM) | 4 µg/mL (≈ 4.31 µM)
COC1C=COC2(C)Oc3c(C)c(O)c4c(=O)c(c5sc6cc(N7CC(C)N(CC8CC8)CC7C)ccc6nc-5c4c3C2=O)NC(=O)C(C)=CC=CC(C)C(O)C(C)C(O)C(C)C(O)C1C [Compound 70, 25-O-deacetyl-5′-[(2S,5R)-4-(cyclopropylmethyl)-2,5-dimethylpiperazinyl]benzthiazinorifamycin] | 0.001 µg/mL (≈ 0.00108 µM) | 1 µg/mL (≈ 1.08 µM) | 1 µg/mL (≈ 1.08 µM) | 0.03 µg/mL (≈ 0.0324 µM) | >8 µg/mL
COC1C=COC2(C)Oc3c(C)c(O)c4c(=O)c(c5oc6cc(N7CCC(C)(N(C)C)CC7)cc(O)c6nc-5c4c3C2=O)NC(=O)C(C)=CC=CC(C)C(O)C(C)C(O)C(C)C(OC(C)=O)C1C (centres unmarked) [Compound 71, 3′-hydroxy-5′-[4-methyl-4-N,N-dimethylamino-1-piperidinyl]benzoxazinorifamycin] | 0.00012 µg/mL (≈ 0.000128 µM) | 0.25 µg/mL (≈ 0.266 µM) | 0.5 µg/mL (≈ 0.531 µM) | 0.008 µg/mL (≈ 0.0085 µM) | 4 µg/mL (≈ 4.25 µM)
COC1C=COC2(C)Oc3c(C)c(O)c4c(=O)c(c5oc6cc(N7CCC(C)(NC(C)=O)CC7)cc(O)c6nc-5c4c3C2=O)NC(=O)C(C)=CC=CC(C)C(O)C(C)C(O)C(C)C(OC(C)=O)C1C (centres unmarked) [Compound 72, 3′-hydroxy-5′-[4-methyl-4-acetylamino-1-piperidinyl]benzoxazinorifamycin] | 0.00025 µg/mL (≈ 0.000262 µM) | 2 µg/mL (≈ 2.09 µM) | 0.5 µg/mL (≈ 0.524 µM) | 0.008 µg/mL (≈ 0.00838 µM) | >8 µg/mL
COC1C=COC2(C)Oc3c(C)c(O)c4c(=O)c(c5oc6cc(N7CCC(C)(N(C)C)CC7)cc(O)c6nc-5c4c3C2=O)NC(=O)C(C)=CC=CC(C)C(O)C(C)C(O)C(C)C(O)C1C (centres unmarked) [Compound 73, 25-O-deacetyl-3′-hydroxy-5′-[4-methyl-4-N,N-dimethylamino-1-piperidinyl]benzoxazinorifamycin] | 0.00025 µg/mL (≈ 0.000278 µM) | 0.03 µg/mL (≈ 0.0334 µM) | 0.12 µg/mL (≈ 0.133 µM) | 0.002 µg/mL (≈ 0.00222 µM) | 2 µg/mL (≈ 2.22 µM)
COC1C=COC2(C)Oc3c(C)c(O)c4c(=O)c(c5oc6cc(N7CCC(C)(NC(C)=O)CC7)cc(O)c6nc-5c4c3C2=O)NC(=O)C(C)=CC=CC(C)C(O)C(C)C(O)C(C)C(O)C1C (centres unmarked) [Compound 74, 25-O-deacetyl-3′-hydroxy-5′-[4-methyl-4-acetylamino-1-piperidinyl]benzoxazinorifamycin] | 0.001 µg/mL (≈ 0.0011 µM) | 0.5 µg/mL (≈ 0.548 µM) | 0.12 µg/mL (≈ 0.131 µM) | 0.03 µg/mL (≈ 0.0329 µM) | >8 µg/mL
COC1C=COC2(C)Oc3c(C)c(O)c4c(=O)c(c5oc6cc(N7CCC(N(C)C)C7)cc(O)c6nc-5c4c3C2=O)NC(=O)C(C)=CC=CC(C)C(O)C(C)C(O)C(C)C(OC(C)=O)C1C [Compound 75, 3′-hydroxy-5′-[(3R)—N,N-dimethylamino-1-pyrrolidinyl]benzoxazinorifamycin] | 0.00012 µg/mL (≈ 0.000131 µM) | 0.12 µg/mL (≈ 0.131 µM) | 0.25 µg/mL (≈ 0.274 µM) | 0.002 µg/mL (≈ 0.00219 µM) | 4 µg/mL (≈ 4.38 µM)
COC1C=COC2(C)Oc3c(C)c(O)c4c(=O)c(c5sc6cc(N7CCN8CCCC8C7)ccc6nc-5c4c3C2=O)NC(=O)C(C)=CC=CC(C)C(O)C(C)C(O)C(C)C(OC(C)=O)C1C [Compound 76, 5′-[(8aS)octahydropyrrolo [1,2-a]pyrazin-2-yl]benzthiazinorifamycin] | 0.00025 µg/mL (≈ 0.00027 µM) | 0.5 µg/mL (≈ 0.54 µM) | 0.25 µg/mL (≈ 0.27 µM) | 0.008 µg/mL (≈ 0.00865 µM) | 4 µg/mL (≈ 4.32 µM)
COC1C=COC2(C)Oc3c(C)c(O)c4c(=O)c(c5sc6cc(N7CCN8CCCC8C7)ccc6nc-5c4c3C2=O)NC(=O)C(C)=CC=CC(C)C(O)C(C)C(O)C(C)C(O)C1C [Compound 77, 25-O-deacetyl-5′-[(8aS)octahydropyrrolo[1,2-a]pyrazin-2-yl]benzthiazinorifamycin] | 0.00025 µg/mL (≈ 0.000283 µM) | 0.25 µg/mL (≈ 0.283 µM) | 0.12 µg/mL (≈ 0.136 µM) | 0.002 µg/mL (≈ 0.00226 µM) | 2 µg/mL (≈ 2.26 µM)
COC1C=COC2(C)Oc3c(C)c(O)c4c(=O)c(c5oc6cc(N7CCN(C)CC7)cc(O)c6nc-5c4c3C2=O)NC(=O)C(C)=CC=CC(C)C(O)C(C)C(O)C(C)C(O)C1C (centres unmarked) [Compound 82] | 0.00012 µg/mL (≈ 0.00014 µM) | 0.015 µg/mL (≈ 0.0175 µM) | 0.25 µg/mL (≈ 0.292 µM) | 0.002 µg/mL (≈ 0.00233 µM) | 4 µg/mL (≈ 4.67 µM)
COC1C=COC2(C)Oc3c(C)c(O)c4c(=O)c(c5oc6cc(N7CCN8CCCC8C7)cc(O)c6nc-5c4c3C2=O)NC(=O)C(C)=CC=CC(C)C(O)C(C)C(O)C(C)C(O)C1C (centres unmarked) [Compound 83] | 0.00025 µg/mL (≈ 0.000283 µM) | 0.03 µg/mL (≈ 0.034 µM) | 0.25 µg/mL (≈ 0.283 µM) | 0.002 µg/mL (≈ 0.00226 µM) | 4 µg/mL (≈ 4.53 µM)
COC1C=COC2(C)Oc3c(C)c(O)c4c(=O)c(c5oc6cc(N7CCN8CCCC8C7)cc(O)c6nc-5c4c3C2=O)NC(=O)C(C)=CC=CC(C)C(O)C(C)C(O)C(C)C(O)C1C (centres unmarked) [Compound 84] | 0.00025 µg/mL (≈ 0.000283 µM) | 0.03 µg/mL (≈ 0.034 µM) | 0.25 µg/mL (≈ 0.283 µM) | 0.004 µg/mL (≈ 0.00453 µM) | 8 µg/mL (≈ 9.06 µM)
COC1C=COC2(C)Oc3c(C)c(O)c4c(=O)c(c5oc6cc(N7CCN(Cc8ccccc8)CC7)cc(O)c6nc-5c4c3C2=O)NC(=O)C(C)=CC=CC(C)C(O)C(C)C(O)C(C)C(O)C1C (centres unmarked) [Compound 86] | 0.001 µg/mL (≈ 0.00107 µM) | >8 µg/mL | 8 µg/mL (≈ 8.57 µM) | 0.03 µg/mL (≈ 0.0322 µM) | >8 µg/mL
COC1C=COC2(C)Oc3c(C)c(O)c4c(=O)c(c5oc6cc(N7CC(C)NC(C)C7)cc(O)c6nc-5c4c3C2=O)NC(=O)C(C)=CC=CC(C)C(O)C(C)C(O)C(C)C(O)C1C (centres unmarked) [Compound 87] | 0.0005 µg/mL (≈ 0.000574 µM) | 0.06 µg/mL (≈ 0.0689 µM) | 0.25 µg/mL (≈ 0.287 µM) | 0.008 µg/mL (≈ 0.00918 µM) | 4 µg/mL (≈ 4.59 µM)
CCC1CN(c2cc(O)c3nc4c5c6c7c(C)c(O)c5c(=O)c(c-4oc3c2)NC(=O)C(C)=CC=CC(C)C(O)C(C)C(O)C(C)C(O)C(C)C(OC)C=COC(C)(O7)C6=O)CC(CC)N1 (centres unmarked) [Compound 88] | 0.0005 µg/mL (≈ 0.000556 µM) | 0.12 µg/mL (≈ 0.133 µM) | 0.25 µg/mL (≈ 0.278 µM) | 0.03 µg/mL (≈ 0.0334 µM) | 4 µg/mL (≈ 4.45 µM)
COCCN1CCN(c2cc(O)c3nc4c5c6c7c(C)c(O)c5c(=O)c(c-4oc3c2)NC(=O)C(C)=CC=CC(C)C(O)C(C)C(O)C(C)C(O)C(C)C(OC)C=COC(C)(O7)C6=O)CC1 (centres unmarked) [Compound 89] | 0.00025 µg/mL (≈ 0.000277 µM) | 0.12 µg/mL (≈ 0.133 µM) | 0.25 µg/mL (≈ 0.277 µM) | 0.004 µg/mL (≈ 0.00444 µM) | 8 µg/mL (≈ 8.88 µM)
CCC1CN(c2cc(O)c3nc4c5c6c7c(C)c(O)c5c(=O)c(c-4oc3c2)NC(=O)C(C)=CC=CC(C)C(O)C(C)C(O)C(C)C(O)C(C)C(OC)C=COC(C)(O7)C6=O)CC(C)N1 (centres unmarked) [Compound 90] | 0.00012 µg/mL (≈ 0.000136 µM) | 0.5 µg/mL (≈ 0.565 µM) | 0.25 µg/mL (≈ 0.282 µM) | 0.004 µg/mL (≈ 0.00452 µM) | 4 µg/mL (≈ 4.52 µM)
CCOc1c(N2CCN(CC)CC2)ccc2nc3c4c5c6c(C)c(O)c4c(=O)c(c-3oc12)NC(=O)C(C)=CC=CC(C)C(O)C(C)C(O)C(C)C(O)C(C)C(OC)C=COC(C)(O6)C5=O (centres unmarked) [Compound 91] | 0.0005 µg/mL (≈ 0.000556 µM) | 0.5 µg/mL (≈ 0.556 µM) | 0.25 µg/mL (≈ 0.278 µM) | 0.008 µg/mL (≈ 0.0089 µM) | 8 µg/mL (≈ 8.9 µM)
CCOc1c(N2CCN(CCOC)CC2)cc(N2CCN(CCOC)CC2)c2nc3c4c5c6c(C)c(O)c4c(=O)c(c-3oc12)NC(=O)C(C)=CC=CC(C)C(O)C(C)C(O)C(C)C(O)C(C)C(OC)C=COC(C)(O6)C5=O (centres unmarked) [Compound 92] | 0.001 µg/mL (≈ 0.000933 µM) | 8 µg/mL (≈ 7.47 µM) | 2 µg/mL (≈ 1.87 µM) | 0.12 µg/mL (≈ 0.112 µM) | >8 µg/mL
CCOc1c(N2CCN(CCOC)CC2)ccc2nc3c4c5c6c(C)c(O)c4c(=O)c(c-3oc12)NC(=O)C(C)=CC=CC(C)C(O)C(C)C(O)C(C)C(O)C(C)C(OC)C=COC(C)(O6)C5=O (centres unmarked) [Compound 93] | 0.005 µg/mL (≈ 0.00538 µM) | 1 µg/mL (≈ 1.08 µM) | 0.5 µg/mL (≈ 0.538 µM) | 0.015 µg/mL (≈ 0.0161 µM) | >8 µg/mL
COC1C=COC2(C)Oc3c(C)c(O)c4c(=O)c(c5n(C)c6cc(N7CC(C)NC(C)C7)ccc6nc-5c4c3C2=O)NC(=O)C(C)=CC=CC(C)C(O)C(C)C(O)C(C)C(O)C1C (centres unmarked) [Compound 94] | 2 µg/mL (≈ 2.3 µM) | >8 µg/mL | 4 µg/mL (≈ 4.61 µM) | 1 µg/mL (≈ 1.15 µM) | >8 µg/mL
